Key:
[1] = biological target: T1, aryl hydrocarbon receptor (AhR) (Homo sapiens, UniProt P35869); test: AhR reporter gene assay (aryl hydrocarbon receptor antagonist activity, DRE-Luc HepG2 cells, TCDD-stimulated luciferase); format: cell-based
T1 construct: DRE-Luc HepG2 cells subcultured in a 225 cm^2 flask; endogenous in cells; host or cells: HepG2 (ATCC), stably transfected with the reporter hCYP1A1/pGL4.27 (DRE-Luc HepG2)
T1 sequence (P35869 11-848): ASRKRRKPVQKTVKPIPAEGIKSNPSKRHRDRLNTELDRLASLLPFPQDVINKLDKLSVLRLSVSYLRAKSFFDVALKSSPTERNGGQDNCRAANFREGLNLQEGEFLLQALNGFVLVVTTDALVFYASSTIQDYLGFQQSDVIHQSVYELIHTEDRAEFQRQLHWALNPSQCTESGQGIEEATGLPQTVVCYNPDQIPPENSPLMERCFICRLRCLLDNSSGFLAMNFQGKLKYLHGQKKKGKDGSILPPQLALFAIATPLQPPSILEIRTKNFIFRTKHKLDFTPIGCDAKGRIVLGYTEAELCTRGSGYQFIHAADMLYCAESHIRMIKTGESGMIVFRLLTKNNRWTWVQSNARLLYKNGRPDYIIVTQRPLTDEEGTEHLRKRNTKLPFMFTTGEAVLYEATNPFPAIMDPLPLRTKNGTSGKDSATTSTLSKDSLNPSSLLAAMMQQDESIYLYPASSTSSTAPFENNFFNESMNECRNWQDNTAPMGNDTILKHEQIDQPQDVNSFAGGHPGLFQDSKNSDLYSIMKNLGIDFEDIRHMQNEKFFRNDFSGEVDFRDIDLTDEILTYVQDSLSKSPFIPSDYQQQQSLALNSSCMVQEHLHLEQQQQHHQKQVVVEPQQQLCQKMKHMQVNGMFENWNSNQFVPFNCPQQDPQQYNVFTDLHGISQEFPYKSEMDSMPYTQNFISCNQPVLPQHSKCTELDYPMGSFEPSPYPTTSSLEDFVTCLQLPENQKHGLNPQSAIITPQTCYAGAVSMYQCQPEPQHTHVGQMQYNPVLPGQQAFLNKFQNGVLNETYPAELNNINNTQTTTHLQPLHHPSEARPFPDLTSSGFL
Outline: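 HepG2 cells stably carrying a human CYP1A1 promoter/DRE-driven luciferase reporter were pretreated with compound for 24 h at 37°C. TCDD (5×10^−10 M in the added solution) was then added for a further 24 h. Firefly luciferase luminescence was read as the measure of antagonism.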

[2] = system: immortalized megakaryocyte line (SeV2-MKCL); test: Platelet production: static culturing of immortalized megakaryocyte line; format: cell-based; settings: compound final concentration 0.1 μM, static culturing 6 to 7 days, control (DMSO) set to 1; platelets = CD41, CD42b and CD42a-positive cells
Outline: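 SeV2-MKCL cells, washed free of doxycycline to stop forced expression, seeded at 1×10^5 cells/mL in IMDM-based medium with compound (final 0.1 μM) or DMSO, static culture 6–7 days, 37° C., 5% CO2. CD41/CD42a/CD42b-positive platelets counted by bead-corrected flow cytometry; platelets per megakaryocyte expressed as fold over DMSO control.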

Row | SMILES | IC50 [1] | Static (vs veh): fold increase of platelet production efficiency (PLT/MK) [2]
1 | CC1(C)COc2nc3c(NCCc4ccc(O)c(-c5cccc(C#N)c5)c4)nc(-c4cncc(C#N)c4)nc3n21 [Example 59] | 2.5 nM | 5.7
2 | CC1(C)CSc2nc3c(NCCc4ccc(O)c(-c5cccc(C#N)c5)c4)nc(-c4cncc(C#N)c4)nc3n21 [Example 60] | 0.43 nM | 3.4
3 | C[C@@H]1CSc2nc3c(NCCc4ccc(O)c(-c5cccc(C#N)c5)c4)nc(-c4cncc(C#N)c4)nc3n21 [Example 61] | 0.71 nM | 3.9
4 | CC1(C)COc2nc3c(NCCc4ccc(O)c(-c5cccc(C#N)c5)c4)nc(-c4cncc(C(F)F)c4)nc3n21 [Example 62, 3-[5-[2-[[2-[5-(difluoromethyl)pyridin-3-yl]-8,8-dimethyl-7H-purino[8,9-b][1,3]oxazol-4-yl]amino]ethyl]-2-hydroxyphenyl]benzonitrile] | 1.9 nM | 5.1
5 | CC1(C)COc2nc3c(NCCc4ccc(O)c(-c5cccc(C#N)c5)c4)nc(-c4ccc5nccn5c4)nc3n21 [Example 63] | 17 nM | 4.8
6 | CC1(C)COc2nc3c(NCCc4ccc(O)c(-c5cccc(C#N)c5)c4)nc(-c4ccnc(F)c4)nc3n21 [Example 64] | 5.7 nM | 3.7
7 | CC1(C)COc2nc3c(NCCc4ccc(O)c(-c5cc(C#N)ccc5F)c4)nc(-c4cncc(C#N)c4)nc3n21 [Example 65] | 3.9 nM | 3.3
8 | Cc1cncc(-c2nc(NCCc3ccc(O)c(-c4cc(C#N)ccc4F)c3)c3nc4n(c3n2)C(C)(C)CO4)c1 [Example 66] | 8.1 nM | 4.8
9 | CC1(C)COc2nc3c(NCCc4ccc(O)c(-c5cccc(C#N)c5F)c4)nc(-c4cncc(C#N)c4)nc3n21 [Example 67] | 2.4 nM | 2.9
10 | Cc1cncc(-c2nc(NCCc3ccc(O)c(-c4cccc(C#N)c4F)c3)c3nc4n(c3n2)C(C)(C)CO4)c1 [Example 68] | 2.8 nM | 3.2
11 | CC1(C)COc2nc3c(NCCc4ccc(O)c(-c5cc(F)cc(C#N)c5)c4)nc(-c4cncc(C#N)c4)nc3n21 [Example 69] | 13 nM | 4.7
12 | C[C@@H]1CSc2nc3c(NCCc4ccc(O)c(-c5cncc(F)c5)c4)nc(-c4cncc(F)c4)nc3n21 [Example 71] | 4.7 nM | 7.2
13 | Cc1cncc(-c2cc(CCNc3nc(-c4cncc(F)c4)nc4c3nc3n4C(C)(C)CO3)ccc2O)c1 [Example 72] | 9.8 nM | 6.8
14 | Cc1cncc(-c2cc(CCNc3nc(-c4cncc(F)c4)nc4c3nc3n4C(C)(C)CS3)ccc2O)c1 [Example 73] | 7.3 nM | 7.9
15 | Cc1cncc(-c2cc(CCNc3nc(-c4cncc(F)c4)nc4c3nc3n4[C@H](C)CS3)ccc2O)c1 [Example 74] | 4.7 nM | 3.5
16 | CC1(C)CSc2nc3c(NCCc4ccc(O)c(-c5cncc(C#N)c5)c4)nc(-c4cncc(F)c4)nc3n21 [Example 76] | 5.7 nM | 2.4
17 | C[C@@H]1COc2nc3c(NCCc4ccc(O)c(-c5cncc(C#N)c5)c4)nc(-c4cncc(F)c4)nc3n21 [Example 77] | 9.2 nM | 3.5
18 | CC1(C)COc2nc3c(NCCc4ccc(O)c(-c5cccc(S(C)(=O)=O)c5)c4)nc(-c4cncc(F)c4)nc3n21 [Example 78] | 3.9 nM | 4.3
19 | CN(C)C(=O)Cc1cccc(-c2cc(CCNc3nc(-c4cncc(F)c4)nc4c3nc3n4C(C)(C)CO3)ccc2O)c1 [Example 79] | 6.6 nM | 2.9
20 | CC1(C)COc2nc3c(NCCc4c[nH]c5ccccc45)nc(-c4cccc(F)c4)nc3n21 [Example 85] | 27 nM | 6.1
21 | CC1(C)COc2nc3c(NCCc4c[nH]c5ccccc45)nc(-c4cccc(F)c4F)nc3n21 [Example 86] | 21 nM | 4.4
22 | CC1(C)COc2nc3c(NCCc4c[nH]c5ccccc45)nc(-c4cc(F)ccc4F)nc3n21 [Example 87] | 38 nM | 3.9
23 | CC1(C)COc2nc3c(NCCc4c[nH]c5ccccc45)nc(-c4cncc(C#N)c4)nc3n21 [Example 92] | 33 nM | 2.6
24 | CC1(C)COc2nc3c(NCCc4c[nH]c5ccccc45)nc(-c4cccnc4)nc3n21 [Example 94] | 39 nM | 2.6
25 | Cc1cncc(-c2nc(NCCc3c[nH]c4ccccc34)c3nc4n(c3n2)C(C)(C)CS4)c1 [Example 96] | 39 nM | 2.7
26 | CC1(C)COc2nc3c(NCCc4c[nH]c5ccccc45)nc(-c4cncc(C(F)F)c4)nc3n21 [Example 101] | 29 nM | 3.8
27 | C[C@@H]1C[S+]([O-])c2nc3c(NCCc4c[nH]c5ccccc45)nc(-c4cncc(F)c4)nc3n21 (stereo partly drawn) [Example 108] | 4.1 nM | 6.6
28 | Fc1cncc(-c2nc(NCCc3c[nH]c4ccccc34)c3nc4n(c3n2)CCCS4)c1 [Example 109] | 11 nM | 7.8
29 | CC1(C)COc2nc3c(NCCc4c[nH]c5ccccc45)nc(-c4ccc5nccn5c4)nc3n21 [Example 110] | 40 nM | 6.1
30 | CC1(C)COc2nc3c(NCCc4c[nH]c5ccccc45)nc(-c4ccc5ncnn5c4)nc3n21 [Example 111] | 40 nM | 7.0
